The values that follow come from paper PMC3422893 (Journal of medicinal chemistry, 2011).

Assay [1] concerns H1703 cells. Put plainly: H1703 non-small cell lung cancer xenograft model. The class given is in vivo, athymic NCr-nu/nu mice. The note with it: three times a week for 3 weeks.
Assay [2] has as its system SAPK/JNK. As to the kind of experiment: Western blot of SAPK/JNK pathway activation in H1703 cells. The class given is cell-based, human.
Assay [3] deals with ATF3. As to the kind of experiment: Western blot of ATF3 protein in H1703 cells. Format: cell-based, human. (Immunoblotting shows a protein as a band on a membrane.)
The test system of assay [4] is PARP. Put plainly: Western blot of PARP cleavage. The class given is cell-based, human. The note with it: H1703 cells, 1 µM, 1, 4, or 6 h.
Assay [5] has as its system H1703 xenograft tumors. As to the kind of experiment: H&E staining and immunohistochemistry of xenograft tumors. Format: in vivo, athymic NCr-nu/nu mice.

`CCOC(=O)N1CCN(/[N+]([O-])=N/Oc2ccc([N+](=O)[O-])cc2[N+](=O)[O-])CC1` [Compound 1, O^2-(2,4-dinitrophenyl) 1-[(4-ethoxycarbonyl)piperazin-1-yl]diazen-1-ium-1,2-diolate]: the “growth of H1703 cells in vivo” value in assay [1] (6 µmol/kg i.v.) is recorded as “significantly reduced growth”. In addition, in assay [2], the “SAPK/JNK activation (phosphorylation)” value is “caused SAPK/JNK activation”. In addition, the “time to detection of SAPK/JNK phosphorylation” value in assay [2] (1 µM) is listed as at most 30 min. Moreover, in assay [3] (1 µM), the ATF3 protein expression entry was “induced”. Moreover, in assay [4], the “cleavage of PARP” value was “resulted in cleavage of PARP”. Besides, in assay [5] (6 µmol/kg i.v.), the “ATF3 protein level in tumors, immunohistochemistry” value was “upregulation in ATF3 protein level”; the “P-SAPK/JNK in tumors, immunohistochemistry” value is listed as “phosphorylation of SAPK/JNK”; the “tissue death in tumors, H&E staining” value is “significant tissue death”.
Consider `CCOC(=O)N1CCN(/[N+]([O-])=N/Oc2cc(C)c([N+](=O)[O-])cc2[N+](=O)[O-])CC1` [Compound 6, O^2-(2,4-Dinitro-5-methylphenyl) 1-[(4-Ethoxycarbonyl)piperazin-1-yl]diazen-1-ium-1,2-diolate], for which the “growth of H1703 cells in vivo” value in assay [1] (8 µmol/kg i.v.) is listed as “did not result in reduction in H1703 tumor growth in vivo”. In addition, in assay [5] (8 µmol/kg i.v.), the “ATF3 protein level in tumors, immunohistochemistry” value is recorded as “comparable to that of the control” and the “P-SAPK/JNK in tumors, immunohistochemistry” value is listed as “did not stain for P-SAPK/JNK”.
As to `O=S(=O)(O)c1cc(O)c(O)c(S(=O)(=O)O)c1` [Tiron, reference compound], the “effect on SAPK/JNK phosphorylation resulting from 1 or 2” value in assay [2] (pretreatment 10 mM for 1 h, then 30-min incubation with 1 or 2) is “attenuated SAPK/JNK phosphorylation”.
For the molecule `O=C1c2ccccc2-c2n[nH]c3cccc1c23` [1,9-pyrazoloanthrone, reference compound], the “effect on 1-induced activation of ATF2 and c-jun” value in assay [2] (pretreatment 50 µM, 30 min) was “inhibited”. Besides, in assay [3] (pretreatment 50 µM, 30 min), the “effect on 1-induced ATF3 upregulation” value was “partially blocked”.
